# Measured values as given in paper PMC10517971, “An inverse agonist of orphan receptor GPR61 acts by a G protein-competitive allosteric mechanism” (Nature Communications, 2023).
# Where two headings read alike, the source gives them in different places.
# Molecular target: hERG (Homo sapiens, UniProt Q12809)
# Test: hERG ion channel profiling, Qube384 automated patch clamp (standard and extended protocol)
# Assay type: cell-based
# Source text: 105 hERG, Nav1.5 and Cav1.2 Ion Channel Profiling
# 106 Ionic curr ents wer e evalu ated in the whole-cell con figuration using the Qube384 automated planar
# 107 patch clamp platform (Sophion Bioscience A/S, Ballerup, Denmark). QChip 384X plates,
# 108 containing 10 patch clamp holes per well, were used to maximize success rate, which was routinely
# 110 For hERG experiments, the external solution was composed of (in mM): 132 NaCl, 4 KCl, 1.8
# 111 CaCl2, 1.2 MgCl2, 10 HEPES, 11 Glucose, pH 7.4, 305 mOsM. […]
# 121 The hERG current was elicited from a holding potential of - 80 mV by a voltage step to +40 mV
# 122 for 500 ms, followed by a repolarizing ramp to - 80 mV at - 0.6 mV/ms. This pattern was repeated
# 123 at a rate of 0.05 Hz. Peak hERG current was measured during the ramp. […]
# 126 Nav1.5 current, from a holding potential of - 80 mV, a 200 ms prepulse to - 120 mV was used to
# 127 homogenize channel inactivation, followed by a 40 ms step to a test potential of - 15 mV.
# 128 Membrane potential was further depolarized to +40 mV for 200 ms to completely inactivate the
# 129 peak Nav1.5 current, followed by a ramp from +40 mV to - 80 mV (-1.2 mV/ms). This voltage
# 130 pattern was repeated at 0.1 Hz, with peak Nav1.5 defined as the maximum current during the step
# 131 to - 15 mV. All studies were conducted at 23° C.
# 132 Compounds were dissol ved and initially diluted in dimethyl sulfoxide (DMSO), with a final
# 133 dilution in external solution to generate final working concent rations. The final DMSO
# 134 concentration in all experiments was 0.33% (v/v).
# 135 For all protocols three vehicle periods each lasting 5 minutes were applied to establish a stable
# 136 baseline. For the standard protocol this was followed by the addition of increasing concentrations
# 137 of test compound, with each exposure lasting 5 minutes. For the “extended” protocol following
# 138 the three- vehi cle additional each well subsequentl y received a single concentration of compound.
# 139 This application was repeated three times for each well, via a flowthrough addition where the
# 140 solution was replaced wi th the same compound concentration with each addition. Each exposure
# 142 Patch clamp data were analyzed using Assay Software 6.4.72 (Sophion Bioscience A/S, Ballerup,
# 143 Denmark). Current amplitudes were determined by averaging the last 4 currents under each test
# 144 condition. The percentage inhibition of each compound was determined by taking the ratio of
# 145 current amplitude measured in the presence of various concentrations of the test compound
# 146 (ICompound) versus the vehicle control current (IVehicle):
# 148 A dose-response curve was generat ed and fit to the Hill equation by the Sophion Analyzer software
# 149 to determine an IC50 value for each compound. The minimum and the slope of the fit were free […]
# Sequence of hERG (Q12809 whole entry): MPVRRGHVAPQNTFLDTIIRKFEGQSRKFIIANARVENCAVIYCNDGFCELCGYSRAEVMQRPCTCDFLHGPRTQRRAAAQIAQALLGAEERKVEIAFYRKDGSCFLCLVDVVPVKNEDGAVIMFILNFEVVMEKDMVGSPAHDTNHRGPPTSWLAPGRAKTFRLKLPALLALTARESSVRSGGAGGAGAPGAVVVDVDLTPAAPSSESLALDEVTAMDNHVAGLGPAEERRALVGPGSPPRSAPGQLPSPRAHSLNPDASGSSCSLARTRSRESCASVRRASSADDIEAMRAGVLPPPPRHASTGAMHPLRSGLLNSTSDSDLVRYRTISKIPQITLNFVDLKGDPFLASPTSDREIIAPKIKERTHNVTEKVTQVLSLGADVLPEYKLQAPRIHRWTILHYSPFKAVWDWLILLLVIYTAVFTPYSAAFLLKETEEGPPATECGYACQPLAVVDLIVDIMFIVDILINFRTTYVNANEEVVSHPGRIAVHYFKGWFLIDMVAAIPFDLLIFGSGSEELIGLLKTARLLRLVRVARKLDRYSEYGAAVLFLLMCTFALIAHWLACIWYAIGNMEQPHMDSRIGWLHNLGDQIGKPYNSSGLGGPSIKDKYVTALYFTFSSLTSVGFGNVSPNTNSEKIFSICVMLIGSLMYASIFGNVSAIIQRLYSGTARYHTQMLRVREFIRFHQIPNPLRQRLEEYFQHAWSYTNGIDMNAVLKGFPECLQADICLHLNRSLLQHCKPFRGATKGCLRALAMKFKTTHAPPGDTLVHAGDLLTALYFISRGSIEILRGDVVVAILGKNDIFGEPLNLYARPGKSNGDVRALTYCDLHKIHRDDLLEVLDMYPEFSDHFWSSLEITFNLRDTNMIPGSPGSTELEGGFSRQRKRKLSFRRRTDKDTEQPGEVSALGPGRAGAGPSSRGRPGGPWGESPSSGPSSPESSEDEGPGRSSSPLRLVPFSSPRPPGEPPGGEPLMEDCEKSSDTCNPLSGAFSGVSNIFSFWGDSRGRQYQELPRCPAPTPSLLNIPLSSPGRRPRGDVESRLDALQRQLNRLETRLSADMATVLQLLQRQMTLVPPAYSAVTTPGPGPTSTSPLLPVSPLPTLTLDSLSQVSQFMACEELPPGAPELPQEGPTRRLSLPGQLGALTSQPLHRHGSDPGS
structure (smiles),measurement,setting,value
CCOc1cc(C)nc(N(CCOC)S(=O)(=O)c2ccc(NCc3c(F)cncc3F)nc2OC)n1 [Compound 1],IC50,"extended protocol, 1st period, read-out: Ion Channel Extended Protocol IC50 (nM), Period 1st",36500 nM
same,IC50,"extended protocol, 2nd period, read-out: Ion Channel Extended Protocol IC50 (nM), Period 2nd",28000 nM
same,IC50,"extended protocol, 3rd period, read-out: Ion Channel Extended Protocol IC50 (nM), Period 3rd",18700 nM
same,IC50,"standard protocol, read-out: Patch IC50",52900 nM
